Source: patent publication US5488037A, “Antithrombotic agents” (Eli Lilly and Company, priority 1994, dated 1996)

Columns and labels:
human thrombin = human thrombin (Homo sapiens, UniProt P00734); assay: Inhibition of the amidase activity of human thrombin (chromogenic substrate, Kass); type: biochemical; conditions: apparent association constant, mean over a range of test compound concentrations; purified human thrombin, substrate N-benzoyl-Phe-Val-Arg-p-nitroanilide, pH 7.4
Method: The assay is carried out by mixing 50 μl buffer (0.03M Tris, 0.15M NaCl, pH 7.4) with 25 μl of human thrombin solution (purified human thrombin, Enzyme Research Laboratories, South Bend, Ind., at 8 NIH units/ml) and 25 μl of test compound in a solvent (50% aqueous methanol (v:v)). Then 150 μl of an aqueous solution of the chromogenic substrate (at 0.25 mg/ml) are added and the rates of hydrolysis of the substrate are measured by monitoring the reactions at 405 nm for the release of p-nitroaniline. Standard curves are constructed by plotting free thrombin concentration against hydrolysis rate. The hydrolysis rates observed with test compounds are then converted to "free thrombin" values in the respective assays by use of the standard curves. The bound thrombin (bound to test compound) is calculated by subtracting the amount of free thrombin observed in each assay from the known initial amount of thrombin used in the assay. The amount of free inhibitor in each assay is calculated by subtracting the number of moles of bound thrombin from the number of moles of added inhibitor (test compound).
The Kass value is the hypothetical equilibrium constant for the reaction between thrombin and the test compound (I). [drawing 45]
Kass is calculated for a range of concentrations of test compounds and the mean value reported in units of liter per mole.

[1] = Index of bioavailability: plasma thrombin time (TT) time course after i.v. bolus and oral treatment of rats; type: in vivo, rat; conditions: dose-adjusted AUC of plasma TT, p.o. (fasted conscious rats) relative to i.v. bolus (anesthetized rats)
Text: Assays are done in duplicate and averaged.
Each sample population represents alternating sequential time points.

Row | Structure (SMILES) | Human Thrombin Inhibition Levels, Kass × 10^6 (l/mole) (human thrombin) | Index of Bioavailability, Percent Relative Activity [1] [%]
1 | CNC1CCCCC1C(=O)N1CCC[C@H]1C(=O)N[C@H](C=O)CCCNC(=N)N.Cl.Cl (stereo partly drawn) [Example 7, 2-(N-methyl)aminocyclohexyl-carbonyl-L-Pro-L-Arginine Aldehyde Dihydrochloride] | 18.4 × 10^6 l/mole | 
2 | CNC(CC(=O)N1CCC[C@H]1C(=O)N[C@H](C=O)CCCNC(=N)N)c1ccccc1.Cl.Cl.O.O (stereo partly drawn) [Example 1, N-methyl-3-amino-3-phenylpropionyl-L-Prolinyl-L-Arginine Aldehyde Dihydrochloride Dihydrate] | 70 × 10^6 l/mole | 28
3 | Cl.Cl.Cl.N=C(N)NCCC[C@@H](C=O)NC(=O)[C@@H]1CCCN1C(=O)C1CCCCC1N.O (stereo partly drawn) [Example 8, 2-aminocyclohexylcarbonyl-L-Pro-L-Arginine Aldehyde Trihydrochloride Monohydrate] | 39 × 10^6 l/mole | 15
4 | Cl.Cl.N=C(N)NCCC[C@@H](C=O)NC(=O)[C@@H]1CCCN1C(=O)C1CNC2CCCCC21.O (stereo partly drawn) [Example 6, 3-perhydroindolylcarbonyl-L-Pro-L-Arginine Aldehyde Dihydrochloride Monohydrate] | 11 × 10^6 l/mole | 
5 | CNC(CC(=O)N1CCC[C@H]1C(=O)N[C@H](C=O)CCCNC(=N)N)C1CCCCC1.CNC(CC(=O)N1CCC[C@H]1C(=O)N[C@H](C=O)CCCNC(=N)N)C1CCCCC1.Cl.Cl.Cl.Cl.O (stereo partly drawn) [Example 2, N-methyl-3-amino-3-cyclohexyl propionyl-L-Pro-L-Arg aldehyde dihydrochloride hemihydrate] | 85 × 10^6 l/mole | 19
6 | Cl.Cl.N=C(N)NCCC[C@@H](C=O)NC(=O)[C@@H]1CCCN1C(=O)C1CCCNC1.O (stereo partly drawn) [Example 5, 3-piperidinocarbonyl-L-Pro-L-Arginine Aldehyde Dihydrochloride Monohydrate] | 2 × 10^6 l/mole | 
7 | Cl.Cl.N=C(N)NCCC[C@@H](C=O)NC(=O)[C@@H]1CCCN1C(=O)CN1CCCCC1.O [Example 4, 2-(2-Piperidino)acetyl-L-Pro-L-Arginine Aldehyde Dihydrochloride Monohydrate] | 1 × 10^6 l/mole | 
8 | CNCC(Cc1ccccc1)C(=O)N1CCC[C@H]1C(=O)N[C@H](C=O)CCCNC(=N)N.Cl.Cl.O (stereo partly drawn) [Example 3, N-Methyl-3-amino-2-benzylpropionyl-L-Pro-L-Arg Aldehyde Dihydrochloride Monohydrate] | 12 × 10^6 l/mole | 8
